Measurements from patent US20260294863A1, “METHOD OF TREATING FIBROTIC-RELATED CONDITION” (YISSUM RESEARCH DEVELOPMENT COMPANY OF THE HEBREW …, priority 2023, published 2026).

How the values were obtained:
[1] = tested on: BzATP/LPS-activated microglia; test: Gene expression (RNA-seq) in BzATP/LPS-activated microglia; type: cell-based, Balb/C mice; conditions: 1×10^−10 M, 8 hrs after BzATP/LPS
Procedure: Experiments were performed on primary microglial cells isolated from brains of neonatal Balb/C mice as previously described (Reichert and Rotshenker, 2003). The brains were stripped of their meninges and enzymatically dissociated. Cells were plated on Poly-L-lysine coated flasks for one week, re-plated for 1- to 2-hr on bacteriological plates and non-adherent cells were washed away. Microglia were propagated by incubation in 20% of medium, conditioned by the L-cell line that produces mouse-CSF. They were identified by morphology and positive immune-reactivity to P2y12, F4/80, complement receptor-3 and Galectin-3/MAC-2 (Reichert and Rotshenker 2003; Gitik et al. 2011).
Ladostigil (1×10^−10 M) was added to microglia for 2 hrs before BzATP/LPS. Cells were harvested before and 8 hr after addition of BzATP/LPS. Total RNA was extracted using the RNeasy Plus Universal Mini Kit (QIAGEN) according to the manufacturer's protocol. Total RNA samples (1 μg RNA) were enriched for mRNAs by pull-down of poly A. Libraries were prepared using the KAPA Stranded mRNA-Seq Kit according to the manufacturer's protocol and sequenced using Illumina NextSeq 500 to generate 85 bp single-end reads (total 25-30 million reads per sample) as described in Zohar et al. (2021).
Next-generation sequencing data underwent quality control using FastQC. They were then preprocessed using Trimmomatic (Bolger et al. 2014) and aligned to the reference genome GRCm38 with the STAR aligner (Dobin et al. 2013) using default parameters. Genomic loci were annotated using GENCODE version M25 (Frankish et al. 2019). Genes with low expression were filtered out of the dataset by setting a threshold of a minimum of 2 counts-per-million in three samples.
Pair-wise differential analyses were performed between all […] BzATP/LPS time points and genes with an FDR <0.01 were considered.

[2] = tested on: cells (oxidative stress induced by Sin 1); conditions: cited from earlier work

SMILES: C#CCN[C@@H]1CCc2ccc(OC(=O)N(C)CC)cc21 [Ladostigil, 6-(N-ethyl, N-methylcarbamyloxy)-N propargyl-1 (R)-aminoindan hemitartrate]
- Egr1 gene expression [1]: downregulated
- Egr2 gene expression [1]: downregulated
- Mmp12 gene expression [1]: downregulated
- TNFαIP3 (A20) gene expression [1]: up-regulated
- Timp1 gene expression [1]: downregulated
- number of genes significantly altered in expression [1]: 25 genes
- concentration preventing oxidative stress, fold lower than those inhibiting AChE or MAO [2]: 20 -fold
- oxidative stress in cells / fall in mitochondrial potential ([2]; induced by Sin 1): prevented oxidative stress in cells
